# US10414811B2, “Protease-resistant lipidated GLP-1 analogs” (MEDIMMUNE LIMITED, priority 2015, dated 2019)
# pEC50: −log10 of the molar value. Where two headings read alike, the source gives them in different places. Numbered stars: 1 amine (or outer) side, 2 acyl side, 3 side chain; on linkers, the order of the positions; unused ones are H or OH. Square brackets hold non-standard residues; d marks the D form. Side chains are listed from the residue outwards. Peptide text beside a SMILES is read from it. * marks the point of attachment. γGlu = O=C(O)[C@H](CCC(=O)[*:2])N[*:1]; Palmitoyl = CCCCCCCCCCCCCCCC(=O)*; αMeF = C[C@](N)(Cc1ccccc1)C(=O)O; Aib = CC(C)(N)C(=O)O
# Experiments:
# Format in all cases: cell-based
# [1] = molecular target: T1, human glucagon receptor (GCGR) (Homo sapiens, UniProt P47871); test: cAMP assay, human GCGR cells; conditions: cAMP assay
# T1 construct: expressed in transfected cells
# T1 sequence (P47871 26-477): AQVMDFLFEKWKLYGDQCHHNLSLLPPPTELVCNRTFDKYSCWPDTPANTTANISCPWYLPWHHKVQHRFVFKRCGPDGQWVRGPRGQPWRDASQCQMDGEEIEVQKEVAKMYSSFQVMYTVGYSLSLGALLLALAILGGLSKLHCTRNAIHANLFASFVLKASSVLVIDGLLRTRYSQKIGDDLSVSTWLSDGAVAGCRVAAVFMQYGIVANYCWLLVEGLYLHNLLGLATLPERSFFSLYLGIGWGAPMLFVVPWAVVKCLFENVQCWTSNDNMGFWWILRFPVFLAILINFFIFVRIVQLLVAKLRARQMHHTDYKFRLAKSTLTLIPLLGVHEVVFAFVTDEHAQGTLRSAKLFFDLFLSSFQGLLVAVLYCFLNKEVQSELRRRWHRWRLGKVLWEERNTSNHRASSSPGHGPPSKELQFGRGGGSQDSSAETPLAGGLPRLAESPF
# Outline: (§1)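 Peptide-stimulated cAMP measured by two-step HTRF after a 30 min room-temperature incubation with receptor-expressing cells (hGLP-1R, hGIPR at 1×10^5 cells/ml; hGCGR at 2×10^5 cells/ml). Duplicate dilutions; EC50 from 4-parameter logistic fit of % Delta F.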
# [2] = molecular target: T2, human glucose-dependent insulinotropic peptide receptor (GIPR) (Homo sapiens, UniProt P48546); test: cAMP assay, human GIPR cells; conditions: cAMP assay
# T2 construct: expressed in transfected cells
# T2 sequence (P48546 22-466): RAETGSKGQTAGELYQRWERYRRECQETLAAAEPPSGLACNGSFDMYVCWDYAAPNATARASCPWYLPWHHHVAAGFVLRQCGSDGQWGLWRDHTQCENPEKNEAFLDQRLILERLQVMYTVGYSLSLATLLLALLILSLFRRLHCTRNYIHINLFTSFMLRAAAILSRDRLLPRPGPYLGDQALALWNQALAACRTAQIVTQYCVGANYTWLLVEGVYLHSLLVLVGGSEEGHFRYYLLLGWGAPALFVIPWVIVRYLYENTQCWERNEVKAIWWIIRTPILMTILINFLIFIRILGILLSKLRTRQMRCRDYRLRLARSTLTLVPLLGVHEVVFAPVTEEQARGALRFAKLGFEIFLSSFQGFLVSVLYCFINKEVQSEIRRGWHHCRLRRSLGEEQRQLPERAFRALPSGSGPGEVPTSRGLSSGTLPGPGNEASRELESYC
# Outline: as §1
# [3] = molecular target: T3, human GLP-1 receptor (GLP-1R) (Homo sapiens, UniProt P43220); test: cAMP assay, human GLP-1R cells; conditions: for pEC50: cAMP assay; for EC50: mean of n1 and n2, read-out: Mean pM GLP-1R
# T3 construct: expressed in transfected cells
# T3 sequence (P43220 24-463): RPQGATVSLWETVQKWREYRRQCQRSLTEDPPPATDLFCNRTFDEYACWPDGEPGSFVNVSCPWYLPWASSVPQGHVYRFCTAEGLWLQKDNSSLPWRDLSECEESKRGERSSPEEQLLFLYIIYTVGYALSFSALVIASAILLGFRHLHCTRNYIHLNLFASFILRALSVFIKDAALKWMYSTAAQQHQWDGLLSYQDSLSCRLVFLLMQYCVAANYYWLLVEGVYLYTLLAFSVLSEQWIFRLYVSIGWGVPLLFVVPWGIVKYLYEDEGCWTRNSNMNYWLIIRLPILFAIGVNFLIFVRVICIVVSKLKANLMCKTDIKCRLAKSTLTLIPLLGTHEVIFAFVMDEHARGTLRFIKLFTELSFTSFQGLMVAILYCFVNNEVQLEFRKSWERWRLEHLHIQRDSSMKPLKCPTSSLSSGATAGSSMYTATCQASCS
# Experimental: Sample dilutions are made in duplicate.
# A frozen cryo-vial of cells expressing the receptor of interest is thawed rapidly in a water-bath, transferred to pre-warmed assay buffer and spun at 240×g for 5 minutes. Cells are re-suspended in assay buffer at a batch-dependent optimized concentration (e.g. hGCGR cells at 2×10^5 cells/ml, hGLP-1R and hGIPR cells at 1×10^5 cells/ml).
# To this, 5 μL cell suspension is added and the plates incubated at room temperature for 30 minutes.
# cAMP levels are measured using a commercially available cAMP dynamic 2 HTRF kit (Cisbio, Cat #62AM4PEJ), following the two step protocol as per manufacturer's recommendations. In brief; anti-cAMP cryptate (donor fluorophore) and cAMP-d2 (acceptor fluorophore) are made up separately by diluting each 1/20 in conjugate & lysis buffer provided in the kit. 5 μL anti-cAMP cryptate is added to wells of the assay plate, and 5 μL cAMP-d2 is added to wells except non-specific binding (NSB) wells, to which conjugate and lysis buffer are added. […] EC50 values of the synthetic peptides determined in cAMP assays are then determined.
# Data is transformed to % Delta F as described in the manufacturer's guidelines and analyzed by 4-parameter logistic fit to determine EC50 values. […] To compare the balance of activities at the GLP-1R and GCGR between different peptides and across different conditions, these can be correlated, where the EC50's are related to those of comparator peptides.
# [4] = first determination (n1), read-out: Primary assay EC50 Gluc-R (n1)
# [5] = second determination (n2), read-out: Primary assay EC50 Gluc-R (n2)
# [6] = first determination (n1), read-out: Primary assay EC50 GIP-R (n1)
# [7] = second determination (n2), read-out: Primary assay EC50 GIP-R (n2)
# [8] = first determination (n1), read-out: Primary assay EC50 GLP-1R n1
# [9] = second determination (n2), read-out: Primary assay EC50 GLP-1R n2
Compound,"pEC50 [1, 4]","pEC50 [1, 5]","pEC50 [2, 6]","pEC50 [2, 7]","pEC50 [3, 8]","pEC50 [3, 9]",EC50 [3]
CCCCCCCCCCCCCCCC(=O)N[C@@H](CCC(=O)NCCCC[C@H](NC(=O)[C@H](CC(=O)O)NC(=O)[C@H](CO)NC(=O)[C@@H](NC(=O)[C@](C)(Cc1ccccc1)NC(=O)[C@H](CO)NC(=O)CNC(=O)[C@H](CCC(N)=O)NC(=O)C(C)(C)NC(=O)[C@@H](N)Cc1c[nH]cn1)[C@@H](C)O)C(=O)N[C@@H](CO)C(=O)N[C@@H](CCC(=O)O)C(=O)N[C@@](C)(Cc1ccccc1)C(=O)N[C@@H](CC(C)C)C(=O)N[C@@H](CC(=O)O)C(=O)N[C@@H](CO)C(=O)N[C@@H](CCC(=O)O)C(=O)N[C@@H](CCCNC(=N)N)C(=O)N[C@@H](C)C(=O)N[C@@H](CCCNC(=N)N)C(=O)N[C@@H](CC(=O)O)C(=O)N[C@@](C)(Cc1ccccc1)C(=O)N[C@H](C(=O)N[C@@H](C)C(=O)N[C@@](C)(Cc1ccccc1)C(=O)N[C@@H](CC(C)C)C(=O)N[C@@H](CCC(=O)O)C(=O)N[C@@H](C)C(=O)NCC(=O)NCC(N)=O)C(C)C)C(=O)O [compound 13] (H-H[Aib]QGS[αMeF]TSDK([γGlu-Palmitoyl])SE[αMeF]LDSERARD[αMeF]VA[αMeF]LEAGG-NH2),8.12,8.39,9.16,9.20,10.66,11.02,16 pM
CSCC[C@H](NC(=O)[C@H](CC(C)C)NC(=O)[C@](C)(Cc1ccccc1)NC(=O)[C@H](CCC(N)=O)NC(=O)[C@@H](NC(=O)[C@](C)(Cc1ccccc1)NC(=O)[C@H](CC(=O)O)NC(=O)[C@H](CCC(N)=O)NC(=O)[C@H](C)NC(=O)[C@H](CCCNC(=N)N)NC(=O)[C@H](CCCNC(=N)N)NC(=O)[C@H](CO)NC(=O)[C@H](CC(=O)O)NC(=O)[C@H](CC(C)C)NC(=O)[C@](C)(Cc1ccccc1)NC(=O)[C@H](CCCCN)NC(=O)[C@H](CO)NC(=O)[C@](C)(Cc1ccccc1)NC(=O)[C@H](CC(=O)O)NC(=O)[C@H](CO)NC(=O)[C@@H](NC(=O)[C@](C)(Cc1ccccc1)NC(=O)[C@H](CO)NC(=O)CNC(=O)[C@H](CCC(N)=O)NC(=O)C(C)(C)NC(=O)[C@@H](N)Cc1c[nH]cn1)[C@@H](C)O)C(C)C)C(=O)N[C@@H](CC(N)=O)C(=O)N[C@H](C(N)=O)[C@@H](C)O [compound 14] (H-H[Aib]QGS[αMeF]TSD[αMeF]SK[αMeF]LDSRRAQD[αMeF]VQ[αMeF]LMNT-NH2),8.52,8.96,7.82,7.72,8.51,8.74,2440 pM
CC[C@H](C)[C@H](NC(=O)[C@H](CO)NC(=O)[C@](C)(Cc1ccccc1)NC(=O)[C@H](CC(=O)O)NC(=O)[C@H](CO)NC(=O)[C@@H](NC(=O)[C@](C)(Cc1ccccc1)NC(=O)[C@H](CO)NC(=O)CNC(=O)[C@H](CCC(=O)O)NC(=O)C(C)(C)NC(=O)[C@@H](N)Cc1ccc(O)cc1)[C@@H](C)CC)C(=O)N[C@@H](C)C(=O)N[C@@H](CCSC)C(=O)N[C@@H](CC(=O)O)C(=O)N[C@@H](CCCCN)C(=O)N[C@H](C(=O)N[C@@H](Cc1c[nH]cn1)C(=O)N[C@@H](CCC(N)=O)C(=O)N[C@@H](CCC(N)=O)C(=O)N[C@@H](CC(=O)O)C(=O)N[C@@](C)(Cc1ccccc1)C(=O)N[C@H](C(=O)N[C@@H](CC(N)=O)C(=O)N[C@@](C)(Cc1ccccc1)C(=O)N[C@@H](CC(C)C)C(=O)N[C@@H](CC(C)C)C(=O)N[C@@H](C)C(=O)N[C@@H](CCC(N)=O)C(=O)N[C@@H](CCCCN)C(N)=O)C(C)C)[C@@H](C)CC [compound 15] (H-Y[Aib]EGS[αMeF]ISD[αMeF]SIAMDKIHQQD[αMeF]VN[αMeF]LLAQK-NH2; N-terminus assumed),6.92,6.92,9.80,10.10,6.92,6.92,119000 pM
CC[C@H](C)[C@H](NC(=O)[C@](C)(Cc1ccccc1)NC(=O)[C@H](CCC(=O)O)NC(=O)[C@](C)(CCCCN)NC(=O)[C@H](C)NC(=O)[C@H](C)NC(=O)[C@H](CCC(=O)O)NC(=O)CNC(=O)[C@H](CCC(=O)O)NC(=O)[C@H](CC(C)C)NC(=O)[C@](C)(Cc1ccccc1)NC(=O)[C@H](CO)NC(=O)[C@H](CO)NC(=O)[C@@H](NC(=O)[C@H](CC(=O)O)NC(=O)[C@](C)(CO)NC(=O)[C@@H](NC(=O)[C@](C)(Cc1ccccc1)NC(=O)[C@H](CO)NC(=O)CNC(=O)[C@H](CCC(=O)O)NC(=O)C(C)(C)NC(=O)[C@@H](N)Cc1c[nH]cn1)[C@@H](C)O)C(C)C)C(=O)N[C@@H](C)C(=O)N[C@@](C)(Cc1ccccc1)C(=O)N[C@H](C(=O)N[C@H](C(=O)N[C@@](C)(CCCCN)C(=O)NCC(=O)NCC(N)=O)C(C)C)C(C)C [compound 16],≤ 7.00,≤ 7.00,≤ 7.00,≤ 7.00,7.96,8.03,10100 pM
CC[C@H](C)[C@H](NC(=O)[C@](C)(Cc1ccccc1)NC(=O)[C@H](CCC(=O)O)NC(=O)[C@](C)(CCCCN)NC(=O)[C@H](C)NC(=O)[C@H](C)NC(=O)[C@H](CCC(=O)O)NC(=O)CNC(=O)[C@H](CCC(=O)O)NC(=O)[C@H](CC(C)C)NC(=O)[C@](C)(Cc1ccccc1)NC(=O)[C@H](CO)NC(=O)[C@](C)(CO)NC(=O)[C@@H](NC(=O)[C@H](CC(=O)O)NC(=O)[C@](C)(CO)NC(=O)[C@@H](NC(=O)[C@](C)(Cc1ccccc1)NC(=O)[C@H](CO)NC(=O)CNC(=O)[C@H](CCC(=O)O)NC(=O)C(C)(C)NC(=O)[C@@H](N)Cc1c[nH]cn1)[C@@H](C)O)C(C)C)C(=O)N[C@@H](C)C(=O)N[C@@](C)(Cc1ccccc1)C(=O)N[C@H](C(=O)N[C@H](C(=O)N[C@@](C)(CCCCN)C(=O)NCC(=O)NCC(N)=O)C(C)C)C(C)C [compound 18],≤ 7.00,≤ 7.00,≤ 7.00,≤ 7.00,8.39,8.24,4940 pM
CC[C@H](C)[C@H](NC(=O)[C@H](Cc1ccccc1)NC(=O)[C@H](CCC(=O)O)NC(=O)[C@H](CCCCN)NC(=O)[C@H](C)NC(=O)[C@H](C)NC(=O)[C@H](CCC(N)=O)NC(=O)CNC(=O)[C@H](CCC(=O)O)NC(=O)[C@H](CC(C)C)NC(=O)[C@H](Cc1ccc(O)cc1)NC(=O)[C@H](CO)NC(=O)[C@H](CO)NC(=O)[C@@H](NC(=O)[C@H](CC(=O)O)NC(=O)C(C)(C)NC(=O)[C@@H](NC(=O)[C@H](Cc1ccccc1)NC(=O)[C@@H](NC(=O)CNC(=O)[C@H](CCC(=O)O)NC(=O)C(C)(C)NC(=O)[C@@H](N)Cc1c[nH]cn1)[C@@H](C)O)[C@@H](C)O)C(C)C)C(=O)N[C@@H](C)C(=O)N[C@@H](Cc1c[nH]c2ccccc12)C(=O)N[C@@H](CC(C)C)C(=O)N[C@H](C(=O)N[C@@H](CCCCN)C(=O)NCC(=O)N[C@@H](CCCNC(=N)N)C(N)=O)C(C)C [compound 20] (H-H[Aib]EGTFT[Aib]DVSSYLEGQAAKEFIAWLVKGR-NH2),≤ 6.54,≤ 6.54,≤ 6.54,≤ 6.54,7.82,7.92,13500 pM
